Assay results published in paper PMC10068595, “Novel asymmetrical azines appending 1,3,4-thiadiazole sulfonamide: synthesis, molecular structure analyses, in silico ADME, and cytotoxic effect” (RSC Advances, 2023).

Assays:
Type in all cases: cell-based
HepG-2 = test: MTT cytotoxicity assay, HepG-2; conditions: Homo sapiens, HepG2, hepatocellular carcinoma HepG-2, 48 h
Experimental: (§1) HepG2, MCF-7, WI 38, Caco-2 cancer cell lines were cultured in complete media of RPMI and DMEM, respectively, at 5% carbon dioxide and 37 °C following standard tissue culture work. The cells were grown in “10% fetal bovine serum (FBS) and 1% penicillin–streptomycin” in 96-multiwell plate. All the synthesized compounds were screened for their cytotoxicity using 20 μL of MTT solution (Promega, USA) for 48 h using untreated and treated cells with concentrations of (0.01, 0.1, 1, 10, and 100 μM) for 48 h.[41,42] The plate was cultured for 3 hours. The percentage of cell viability was calculated following this equation: […]. An ELISA microplate reader was used to measure the absorbance at 690 nm to calculate the viability versus concentration, and the IC50 value using GraphPad prism software.

MCF-7 = test: MTT cytotoxicity assay, MCF-7; conditions: Homo sapiens, MCF7, breast cancer MCF-7, 48 h
Experimental: as §1

WI 38 = test: MTT cytotoxicity assay, normal lung fibroblast WI 38; conditions: Homo sapiens, 48 h
Experimental: as §1

Caco2 = test: MTT cytotoxicity assay, Caco2; conditions: Homo sapiens, Caco-2, colon cancer Caco2, 48 h
Experimental: as §1

Structure (SMILES) | IC50 (HepG-2) | IC50 (MCF-7) | IC50 (WI 38) | IC50 (Caco2)
CC(=NN=Cc1ccc(N(C)C)cc1)c1nn(-c2ccc(S(N)(=O)=O)cc2)c(=N)s1 [Compound 7b, 4-[5-(1-((4-(Dimethylamino)benzylidene)hydrazineylidene)ethyl)-2-imino-1,3,4-thiadiazol-3(2H)-yl]benzenesulfonamide] | 26.8 ± 1.5 µM | 35.2 ± 1.6 µM | 49.8 ± 2.6 µM | 33.6 ± 1.7 µM
COc1cc(OC)c(C=NN=C(C)c2nn(-c3ccc(S(N)(=O)=O)cc3)c(=N)s2)c(OC)c1 [Compound 9, 4-[2-Imino-5-(1-((2,4,6-trimethoxybenzylidene)hydrazineylidene)ethyl)-1,3,4-thiadiazol-3(2H)-yl]benzenesulfonamide] | 12.2 ± 0.7 µM | 7.21 ± 0.3 µM | 25.4 ± 1.3 µM | 47.2 ± 2.3 µM
CCN(CC)CN1C(=O)C(=NN=C(C)c2nn(-c3ccc(S(N)(=O)=O)cc3)c(=N)s2)c2ccccc21 [Compound 15b, 4-[5-(1-((1-((Diethylamino)methyl)-2-oxoindolin-3-ylidene)hydrazineylidene)ethyl)-2-imino-1,3,4-thiadiazol-3(2H)-yl)benzenesulfonamide] | 1.62 ± 0.1 µM | 4.43 ± 0.2 µM | 16.8 ± 0.9 µM | 0.78 ± 0.04 µM
CC(=NN=Cc1ccco1)c1nn(-c2ccc(S(N)(=O)=O)cc2)c(=O)s1 [Compound 11, 4-[5-(1-((Furan-2-ylmethylene)hydrazineylidene)ethyl)-2-oxo-1,3,4-thiadiazol-3(2H)-yl]benzene sulfonamide] | 15 ± 0.8 µM | 3.34 ± 0.2 µM | 24.5 ± 1.8 µM | 8.55 ± 0.4 µM
CC(=NN=C1C(=O)N(CN(C)C)c2ccccc21)c1nn(-c2ccc(S(N)(=O)=O)cc2)c(=N)s1 [Compound 15a, 4-[5-(1-((1-((Dimethylamino)methyl)-2-oxoindolin-3-ylidene)hydrazineylidene)ethyl)-2-imino-1,3,4-thiadiazol-3(2H)-yl]benzenesulfonamide] | 6.54 ± 0.4 µM | 4.34 ± 0.2 µM | 13.4 ± 0.7 µM | 2.33 ± 0.1 µM
CC(=NN=Cc1ccc([N+](=O)[O-])cc1)c1nn(-c2ccc(S(N)(=O)=O)cc2)c(=N)s1 [Compound 7c, 4-[2-Imino-5-(1-((4-nitrobenzylidene)hydrazineylidene)ethyl)-1,3,4-thiadiazol-3(2H)-yl]benzenesulfonamide] | 3.04 ± 0.2 µM | 9.59 ± 0.4 µM | 25.4 ± 1.9 µM | 3.37 ± 0.2 µM
COc1ccc(C=NN=C(C)c2nn(-c3ccc(S(N)(=O)=O)cc3)c(=N)s2)cc1 [Compound 7a, 4-[2-Imino-5-(-1-((4-methoxybenzylidene)hydrazineylidene)ethyl)-1,3,4-thiadiazol-3(2H)-yl]benzenesulfonamide] | 4.17 ± 0.2 µM | 31.5 ± 1.4 µM | 28.2 ± 1.5 µM | 3.16 ± 0.2 µM
CC(=NN=C1C(=O)Nc2ccccc21)c1nn(-c2ccc(S(N)(=O)=O)cc2)c(=N)s1 [Compound 13, 4-[2-Imino-5-(1-((2-oxoindolin-3-ylidene)hydrazineylidene)ethyl)-1,3,4-thiadiazol-3(2H)-yl]benzenesulfonamide] | 1.76 ± 0.1 µM | 17.7 ± 0.8 µM | 11.4 ± 0.6 µM | 8.99 ± 0.4 µM
